Experimental data published in patent publication US6437153B1, “Process for preparing 3-(1-hydroxyphenyl-1-alkoximinomethyl)dioxazines” (Bayer Aktiengesellschaft, priority 1996, dated 2002).
Where two headings read alike, the source gives them in different places.

Assay: logP determined by HPLC
Format: physicochemical
[1] = preparation examples, where two values are given they are the stereoisomers of the product mixture, read-out: HPLC: logP
[2] = preparation examples, where two values are given they are the stereoisomers of the product mixture

chromatographic logP [1] | chromatographic logP (E isomer, Example 2 product, read-out: HPLC: logP (E isomer)) | chromatographic logP (HPLC, preparation examples, where two values are given they are the stereoisomers of the product mixture, read-out: HPLC: logP) | HPLC: logP [2] | SMILES
2.88 |  |  |  | CON=C1COc2ccc(C)cc21 [(VI-2), 5-Methylbenzofuran-3-one O-methyl-oxime]
1.87 |  |  |  | CON=C(C[N+](=O)[O-])c1ccccc1O [Compound (V-1), 1-(2-hydroxyphenyl)-2-nitro-ethanone O-methyl-oxime]
 | 1.24 | 1.22 |  | CO/N=C(/C1=NOCCO1)c1ccccc1O [Compound (I-1), E-(5,6-dihydro-[1,4,2]dioxazin-3-yl)-(2-hydroxy-phenyl)-methanone O-methyl-oxime]
1.56 |  |  | 1.72 | CON=C1C(=NO)Oc2ccccc21 [Compound (III-1), benzofuran-2,3-dione 3-(O-methyl-oxime) 2-oxime]
1.65 |  |  | 1.79 | CON=C1C(=NOCCO)Oc2ccccc21 [Compound (II-1), benzofuran-2,3-dione 2-[O-(2-hydroxy-ethyl)-oxime]3-(O-methyl-oxime)]
